Source: patent US8999295B2, “Technique for drug and gene delivery to the cell cytosol” (Brigham Young University, priority 2009, dated 2015)

What was measured:
[1] = Volume expansion ratio on liquid-to-vapor transformation; type: physicochemical; settings: at body temperature
[2] = cited from earlier work
[3] = at body temperature; cited from earlier work

Row | SMILES | expansion ratio (liquid to vapor volume) [1] | solubility in water [2] | vapor pressure [3] [atm]
1 | FC(F)(F)C(F)(F)C(F)(F)C(F)(F)C(F)(F)F [PFC5, perfluoropentane] | approximately 103 |  | 
2 | O=O [oxygen] |  | 1.32 mol/m^3 | 
3 | FC(F)(F)C(F)(F)C(F)(F)C(F)(F)C(F)(F)C(F)(F)F [perfluorohexane] | ~259 | 2.7×10^−4 mol/m^3 | 0.48
4 | FC(F)(F)C(F)(F)C(F)(F)F [perfluoropropane] |  | 0.19 mol/m^3 | 
